Results from patent US20080262228A1, “Metabolites of 5-fluoro-8- quinoline and methods of preparation and uses thereof” (Wyeth, priority 2006, published 2008).

Experiments:
[1] = Metabolite characterization in cryopreserved hepatocytes; conditions: hepatocyte incubations, 20 μM; R, rat; D, dog; H, human; Media = decomposition product observed in media control
Method: Pooled male rat, dog, and mixed male and female human cryopreserved hepatocytes were used in this study. The cryopreserved hepatocytes (two vials from each species; three to five million viable cells per vial) were thawed in a 37° C. water bath with gentle shaking until the ice was almost melted. The suspensions from the two individual vials of the same species were immediately transferred to a 50 mL centrifuge tube containing pre-warmed thawing media at 37° C. with gentle handshaking to prevent the cells from settling. The cell suspension was centrifuged at 50 g for 5 min at 4° C. Supernatants were discarded and the pellets were resuspended in pre-warmed incubation media (8 mL) at 37° C. […] [^14C]COMPOUND I (20 μM) was incubated in a 12-well plate containing hepatocyte suspensions at 1.0 mL per well in duplicate (≧1 million viable cells/well) at 37° C. for 1 or 4 hr in the presence of 5% CO2:95% O2. Control incubations without hepatocytes were also run under the same conditions. Positive controls containing [^14C]7-ethoxycoumarin (100 μM) were also incubated under the same conditions, but only for 1 hr. At the end of the incubations, reactions were stopped by adding acetonitrile with 2% acetic acid (1 mL), mixed for 10 min, followed by centrifugation at 4000 rpm for 10 min at 4° C. Aliquots (50 μL) of supernatants were analyzed by HPLC with UV and radioactivity flow detection for metabolite profiling, and by LC/MS for metabolite identification as described in below. To determine extraction recovery, aliquots (20 μL) of supernatants were analyzed for radioactivity content utilizing a Packard Tri-Carb Model 3100 TR liquid scintillation counter and 5 mL of Ultima Gold.
The HPLC system used for mass spectrometric analysis was a Waters Alliance model 2695 HPLC system (Waters Corp). It was equipped with a built-in autosampler and a model 996 diode array UV detector. The UV detector was set to monitor 210-400 nm. The HPLC conditions were the same as those described hereinabove with the following exceptions. […]

[2] = In vivo metabolism and excretion of [14C]COMPOUND I in male beagle dogs, single oral 3 mg/kg dose; set-up: species or system dog; conditions: 3 mg/kg oral
Method: Dose preparation, animal dosing, and specimen collection were performed at Wyeth Research, Collegeville, Pa. The vehicle contained 2% (w/v) polysorbate 80, NF and 0.5% (w/v) methylcellulose (4000 cps) in water. [^14C]COMPOUND I trisuccinate salt (50.25 mg) and non-labeled COMPOUND I trisuccinate salt (331.9 mg) were suspended in 72 mL of the vehicle by grinding with a mortar and a pestle. The target [^14C]COMPOUND I concentration was approximately 3 mg/mL as free base and 48 μCi/mL with a target specific activity of 16 μCi/mg. Three pre- and post-dose aliquots (100 μL) were taken for the determination of radiochemical purity, drug and radioactivity concentrations and specific activity (see below).
Four male beagle dogs, weighing from 9.4 to 11.5 kg at the time of dosing, were from an in-house colony. Non-fasted dogs were given a single 3 mg/kg (approximately 48 μCi/kg) dose of [^14C]COMPOUND I at a volume of 1 mL/kg via intragastric gavage. Animals were provided Purina dog chow and water ad libitum, and were housed individually in metabolic cages.
Blood samples were collected from the jugular vein at 1, 4, 8, 24, 48, 72 and 120 hr after dose administration into tubes containing potassium EDTA as the anticoagulant and then placed on ice. Aliquots of 200 μL were removed and plasma was harvested immediately from the remaining blood by centrifugation at 4° C. Urine samples were collected into tubes on dry ice from 0-24 and 24-48 hr, and then at ambient temperature at 24 hr intervals for 7 days post-dose. Fecal samples were collected at 24 hr intervals for 7 days post-dose at room temperature. Cage rinses were collected daily by rinsing each cage with approximately 500 mL of 30% ethanol in water. The dose aliquots and biological specimens were stored at approximately −70° C. until analysis.
Triplicate aliquots of diluted dose (20 μL), dose fractions (10 μL) and plasma (50 μL), urine (200 μL) and cage wash (500 μL) from individual dogs were analyzed for radioactivity content. The samples were assayed in a Tri-Carb Model 3100TR liquid scintillation counter (Perkin Elmer) using 5 mL of Ultima Gold scintillation cocktail.
Fecal samples from individual dogs were weighed and homogenized in water at a volume-to-weight ratio of about 4:1 with a Silverson sealed-unit homogenizer at ambient temperature. Triplicate aliquots of whole blood (50 μL) and fecal homogenates (approximately 0.2 g) were placed into Combusto-cones with Combusto-pads and allowed to dry overnight. Samples were combusted with a model 307 Tri-Carb Sample Oxidizer, equipped with an Oximate-80 Robotic Automatic Sampler (Perkin Elmer). The liberated ^14CO2 was trapped with Carbo-Sorb® E carbon dioxide absorber, mixed with PermaFluor® E+liquid scintillation cocktail, and counted in a Tri-Carb Model 3100 TR/LL liquid scintillation counter.
Plasma samples were pooled by mixing equal volumes from four animals at each time point (1, 4, 8 and 24 hr). Aliquots of 2.0 mL of pooled plasma were mixed with 2.0 mL of acetonitrile, placed on ice for about 10 min, and then centrifuged at 4° C. The supernatant was transferred to a clean tube. The protein pellets were extracted two more times with 2.0 mL of acetonitrile. The supernatants from precipitation and extraction of each sample were pooled, mixed, and evaporated at 22° C. under nitrogen in a TurboVap LV evaporator (Caliper Life Sciences, Hopkinton, Mass.) to about 0.8 mL. The concentrated extract was centrifuged, the supernatant volume measured and the extraction efficiency was determined by analyzing duplicate 10 μL aliquots for radioactivity concentrations. For metabolite profiling, an aliquot of the supernatant (200 μL) was injected onto the HPLC column as described hereinbelow, and fractions were collected at 20 second intervals into 96-well Lumaplates (Perkin Elmer).

- Source [1]: All
- Source ([2]; P, plasma, F, feces): P, F
- percent of total fecal radioactivity ([2]; pooled 0-24 hr fecal sample): 1.2%
- percent of total fecal radioactivity ([2]; pooled 24-48 hr fecal sample): 6.7%
- percent of total plasma radioactivity ([2]; pooled plasma, over 24 hr post-dose): 71-78%
SMILES: COc1cc(N2CCN(C3CCN(c4ccc(F)c5cccnc45)CC3)CC2)c2ncccc2c1 [COMPOUND I, 5-Fluoro-8-{4-[4-(6-methoxyquinolin-8-yl)piperazin-1-yl]piperidin-1-yl}quinoline]
